Experimental findings from US6734177B2, “Certain salts of discodermolide acid, pharmaceutical compositions containing them and their use in treating tumors” (Novartis AG, priority 2001, dated 2004) are described below.

Read-outs that look alike come from different tables or passages of the source.

The test system of one data set is HCT 116 colon carcinoma. Briefly: Anchorage Dependent Growth Monolayer Assay (ADGMA), MTT, 3-day exposure. The format is cell-based. The following applies: Homo sapiens, read-out: IC50 (average±S.E.M.) HCT116. The text has this: (§1) As indicated above, all of the compounds of formula I are anti-tumor agents and are, therefore, useful in inhibiting the growth of various lymphomas, sarcomas, carcinomas, myelomas, and leukemia cell lines. […] This assay was adapted from the 60 cell line assay used by the National Cancer Institute (NCI) with the following modifications:
(§2) 1) four cell lines representative for the important tumor types, viz., MIP 101 colon carcinoma, HCT 116 colon carcinoma, 1A9 ovarian carcinoma and 1A9PTX22 ovarian carcinoma were utilized; and
(§3) 2) a tetrazolium derivative, viz., MTT, was utilized to determine cell density.
(§4) The ADGMA compares the number of viable cells following a 3-day exposure to a test compound relative to a number of cells present at the time the test compound was added. […] The absorbence at 540 nm (A540) of the formazan derivative is proportional to the number of viable cells. The IC50 for a test compound is the concentration of compound required to reduce the final cell number to 50% of the final control cell number. If cell proliferation is inhibited, the assay further defines compounds as cytostatic (cell number after 3-day compound incubation>cell number at time of compound addition) or cytotoxic (cell number after 3-day compound incubation<cell number at time of compound addition).
(§5) The HCT 116 colon carcinoma cell line was obtained from the American Type Culture Collection (ATCC, Rockville, Md.). The MIP 101 colon carcinoma was obtained from Dr. Robert Kramer (Bristol Meyers Squibb) and was previously described (Niles R M, Wilhelm S A, Steele G D JR, Burke B, Christensen T, Dexter D, O'Brien M J, Thomas P, Zamcheck N. Isolation and characterization of an undifferentiated human colon carcinoma cell line (MIP-101). Cancer Invest. 1987;5(6):545-52.). The 1A9 and the 1A9PTX22 ovarian tumor cell lines were obtained from Dr. Tito Fojo, Medicine Branch, Division of Clinical Sciences, National Cancer Institute, National Institutes of Health, Bethesda, Md. 20892. The 1A9 is a clone of the ovarian carcinoma cell line, A2780 (Giannakakou P, Sackett, D L, Kang Y -K, Zhan Z, Buters J T M, Fojo T, Poruchynsky M S. Paclitaxel-resistant human ovarian cancer cells have mutant β-tubulins that impaired paclitaxel-driven polymerization. J. Biol. Chem. 1997, 272(4):17118-17125). The 1A9PTX22 subline was isolated as an individual clone from the 1A9 cell line in a single step selection by exposure to 5 ng/mL paclitaxel in the presence of 5 μg/mL of verapamil. All cell lines were used between passages 4-20 following thawing. MIP 101 colon carcinoma, HCT 116 colon carcinoma, 1A9 ovarian carcinoma and 1A9PTX22 ovarian carcinoma cell lines are maintained and plated in RPMI 1640 medium containing 10% fetal bovine serum.
(§6) Cells are trypsinized and counted using hemacytometer to determine cell concentrations. Cells were then plated in their respective maintenance media (200 μL/well) in 96-well plates at the following concentrations: MIP 101, 2000 cells/well, HCT 116, 2000 cells/well, 1A9, 10000 cells/well, and 1A9PTX22, 10000 cells/well. […] Initial cell densities, assayed one day after plating, are roughly 0.10-0.20 A540 absorbence units greater than the media blank. Ninety six well plates were seeded on day 0 and the test compounds are added on day 1. A “time 0” plate was created that received media only in row A and one cell line/row in rows B-E. The “time 0” plate was processed 24 hours after plating (at the time when drugs were added to experimental plates), as follows: To each well 5 microliters of the MTT stock solution (0.5 mg/ml in PBS) was added to each well and then incubated for three hours at 37 degrees C., 5% CO2, in a humidified environment. Media was then carefully and completely removed. Plates were allowed to dry in the dark. DMSO (dimethylsulfoxide) was added to each well (100 μl/well) and plates were placed on an orbital shaker for 2 hours. […]

The subject of the next data set is MIP 101 colon carcinoma. The data set is described as above. The format is cell-based. The following applies: Homo sapiens, 72 h, read-out: IC50 (average±S.E.M.) MIP101.
From the text: as §1, §2, §3, §4, §5, §6

In data set [1] the test system is 1A9PTX22 ovarian carcinoma. The data set is described as above. The format is cell-based. The following applies: Homo sapiens, 1A9/ptx-22, 72 h, read-out: IC50 (average±S.E.M.) 1A9PTX22.
From the text: as §1, §2, §3, §4, §5, §6

In another data set the test system is 1A9 ovarian carcinoma. The data set is described as above. It counts as cell-based. Particulars: Homo sapiens, read-out: IC50 (average±S.E.M.) 1A9.
From the text: as §1, §2, §3, §4, §5, §6

A short description of data set [2]: Body weight change of athymic nude mice in the hollow fiber model. It counts as in vivo. The following applies: Paclitaxel 15 mg/kg i.v. daily for 5 days, Ex. 1 45 mg/kg i.v. once; for Δ Mean % Body Weight, Exp. 1: Experiment 1; for Δ Mean % Body Weight, Exp. 2: Experiment 2. On the procedure: Outbred athymic (nu/nu) female mice (“Chrls:Athymic Nude-nu”, Charles River Laboratories, Wilmington, Mass.) were anesthetized with ip injections of Ketamine/Xylazine (150 mg/kg, and 12 mg/kg body weight, respectively). For the subcutaneous implantation an 11-gauge trocar containing one or two hollow fibers was inserted through an incision made with scissors at the nape of the neck of an animal, and fibers were released by retracting the trocar while depressing the plunger. This procedure was repeated until all four hollow fibers were implanted. One wound clip was used to close the skin incision. After the surgery each animal received a single, subcutaneous injection of 0.4 mg/kg butorphenol to relieve any potential pain. Animals recovered from the anesthesia on a heating pad, before returning to their cages.
One day after the implantation (4 hollow fibers/animal, each hollow fiber containing one cell line: HCT 116, MIP 101, 1A9, and 1A9PTX22) animals were randomly sorted into five groups of six mice/group. The first group was sacrificed, hollow fibers were retrieved, and processed according to a published procedure, to determine the number of viable cells in each fiber (T0.)
The remaining groups were treated as follows:
Group 1: Example 1, 45 mg/kg, iv, once.
Group 2: Vehicle for Example 1 (16.7% Cremophor EL, 8.3% ethanol, 75% D5W), iv, once.
Group 3: Paclitaxel, 15 mg/kg, iv, daily for 5 days.
Group 4: Vehicle for paclitaxel (12.5% Cremophor EL, 12.5% ethanol, 75% D5W) iv, daily for 5 days.
On day 7 all animals were sacrificed, and hollow fibers were retrieved and processed according to a published procedure, to determine the number of viable cells in each fiber (T—for fibers from animals treated with experimental compounds, C—for fibers from animals treated with corresponding vehicles). Antitumor activity was expressed as % Mean ΔT/Mean ΔC [comparing cell growth for treatment group to vehicle control group, where % Mean ΔT/Mean ΔC=(Mean T−Mean T0/Mean C−Mean T0)×100%]. Regressions were calculated using the formula: (1−Mean T/Mean T0)×100%. Statistical significance of the results was uniformly evaluated using a two-tailed Student's t-test, as recommended by a statistician, following analysis of our representative experiments (Colin Goodal, statistical consultant to Novartis, personal communication).

In the case of `C=C/C=C\[C@H](C)[C@H](OC(N)=O)[C@@H](C)[C@@H](O)[C@@H](C)C/C(C)=C\[C@H](C)[C@@H](O)[C@@H](C)/C=C\[C@@H](O)C[C@H](O)[C@H](C)[C@H](O)[C@@H](C)C(=O)[O-].[Na+]` [Ex. 1, (2R,3S,4S,5S,7S,8Z,10S,11S,12S,13Z,16S,17S,18S,19S,20S,21Z)-19-[(aminocarbonyl)oxy]-3,5,7,11,17-pentahydroxy-2,4,10,12,14,16,18,20-octamethyl-8,13,21,23-tetracosatetraenoic acid, sodium salt], the IC50 with HCT 116 colon carcinoma (HCT-116, 72 h) was 50 ± 20 nM; with MIP 101 colon carcinoma it was 300 ± 10 nM; in data set [1], 200 ± 90 nM; in the data set with 1A9 ovarian carcinoma (1A9, 72 h), 100 ± 40 nM. Further, the “Δ Mean % Body Weight, Exp. 1” value in data set [2] is “Exp. 1: None”. In data set [2], the “Δ Mean % Body Weight, Exp. 2” value was “Exp. 2: None”.
Consider `CC(=O)O[C@H]1C(=O)[C@@]2(C)[C@H]([C@H](OC(=O)c3ccccc3)[C@]3(O)C[C@H](OC(=O)[C@H](O)[C@@H](NC(=O)c4ccccc4)c4ccccc4)C(C)=C1C3(C)C)[C@]1(OC(C)=O)CO[C@@H]1C[C@@H]2O` [paclitaxel], for which the IC50 in the data set with HCT 116 colon carcinoma (72 h, HCT 116 cells, 3-day exposure, MTT) is 0.3 ± 0.2 nM; with MIP 101 colon carcinoma (MIP 101 cells, 3-day exposure, MTT), 200 ± 60 nM; in data set [1] (1A9PTX22 cells, 3-day exposure, MTT), 1 ± 1 nM; with 1A9 ovarian carcinoma (72 h, 1A9 cells, 3-day exposure, MTT) it was 47 ± 7 nM. Further, the “Δ Mean % Body Weight, Exp. 1” value in data set [2] was “Exp. 1: None”. Moreover, in data set [2], the “Δ Mean % Body Weight, Exp. 2” value was “Exp. 2: None”.

In general, IC50 refers to the concentration at which inhibition is half-maximal.
